Measured values reported in PMC3979416 (The Journal of Biological Chemistry, 2014).
Where two headings read alike, the source gives them in different places.

Experiments:
BRD4 = assay: TR-FRET displacement of the H4 peptide by the JQ1-TAMRA probe; assay type: binding, human; details: data not shown
BRD4 BD1 mutants [1] = tested on: BRD4 BD1 mutants
Description: After 30 min of incubation at room temperature, the plates were measured in a Tecan M1000 plate reader using its FP module and excitation/emission wavelengths of 530 and 570 nm, respectively. For KD determinations the background-corrected polarization values were plotted against the concentrations of BRD4, and the data were fitted to a one-site binding equation: Y = Bmax × X/(KD + X), where Y is the specific binding, and Bmax is the maximal binding, using the GraphPad Prism software. Free energy of binding ΔG was calculated as described above.

BRD4 wild type = assay: FRAP of GFP-BRD4 wild type with JQ1; assay type: cell-based, human; details: U2OS cells, 1 μM JQ1 1 h before imaging
Description: For the photobleaching experiments we used full-length human BRD4 cDNA (RefSeq NM_058243.2) cloned into the pcDNA6.2/N-EmGFP-DEST plasmid (Invitrogen) by the Gateway technology (Invitrogen) to create a chimeric green fluorescent protein (GFP)/wild-type BRD4 expression construct. […] The synthesized DNA fragments were cloned into the pTT5 ([49]) destination vector using a lambda site-specific recombination system (LR-recombination, Gateway Technology, Invitrogen). Plasmid DNA was prepared using the QIAprep Spin Miniprep kit (Qiagen).
FRAP studies were performed using a protocol modified from previous work ([17], [55]). In brief, U2OS cells were reverse-transfected (Lipofectamine 2000, Invitrogen) with mammalian expression constructs encoding chimeric GFP-BRD4 (wild type or mutants). […] The average intensity at each imaging time point was measured for three regions of interest: the bleached region (It), the total cell nucleus (Tt), and a random region outside of the cell for background subtraction (BG). […] The base line was normalized to zero, and the prebleach was normalized to 1. Normalized data were imported into GraphPad Prism 6.0, and half-times of recovery (t½) were calculated from individual single exponential curve fits for each cell and presented as the mean for each group. p values were calculated using an unpaired t test.

BRD4 BD1 mutants [2] = tested on: BRD4 BD1 mutants; remark: listed apart in the source
Description: The TR-FRET binding assay used to measure the interaction of BRD4 with acetylated peptides was a modified version of a previously described protocol ([18]). The experiments were performed in 384-well black small volume microtiter plates (Greiner) in a buffer composed of 50 mM Hepes, pH 7.5 (Applichem), 50 mM NaCl (Sigma), 400 mM KF (Sigma), 0.5 mM CHAPS (Sigma), and 0.05% BSA (Sigma) in a final volume of 5–10 μl (n = 4). BRD4 (100 nM) protein domains were mixed with 200 nM concentrations of the biotin-labeled histone peptides and incubated for 30 min at room temperature. The protein-peptide complexes at equilibrium were then detected with 5 nM Eu^3+ cryptate-conjugated streptavidin (CisBio) and 10 nM anti-His6-XL665 (Cisbio). To analyze the binding of mutated histone peptides at different ionic strengths, streptavidin Eu^3+ chelate (W1024, PerkinElmer Life Sciences) was used instead of cryptate as fluorescence donor, and KF was replaced by NaCl at concentrations of 20, 100, and 500 mM.
The plates were then processed as described above. IC50 values were calculated by plotting the log [competitor/inhibitor] versus mean normalized response data from at least two independent experiments measured in triplicate and fitting it to a four-parameter equation with variable Hill slope, Y = bottom + (top-bottom)/(1 + 10^(logIC50 − ^X^) × Hill slope)), using the GraphPad Prism software. […]

BRD4 BD1 Y139F [3] = molecular target: T1, BRD4 BD1 Y139F (Homo sapiens, UniProt O60885, Y139F); details: TR-FRET competition
Description: (§1) Standard free energy of binding (ΔG°) and entropy (ΔS°) were calculated with the equations ΔG° = −RTln(1/KD°) and −TΔS° = ΔG° × ΔH°b. To facilitate comparisons dΔG° was also calculated: dΔG° = ΔG° (mt) − ΔG° (WT).
(§2) The experiments were performed in 384-well black small volume microtiter plates (Greiner) in a buffer composed of 50 mM Hepes, pH 7.5 (Applichem), 50 mM NaCl (Sigma), 400 mM KF (Sigma), 0.5 mM CHAPS (Sigma), and 0.05% BSA (Sigma) in a final volume of 5–10 μl (n = 4). BRD4 (100 nM) protein domains were mixed with 200 nM concentrations of the biotin-labeled histone peptides and incubated for 30 min at room temperature. The protein-peptide complexes at equilibrium were then detected with 5 nM Eu^3+ cryptate-conjugated streptavidin (CisBio) and 10 nM anti-His6-XL665 (Cisbio). To analyze the binding of mutated histone peptides at different ionic strengths, streptavidin Eu^3+ chelate (W1024, PerkinElmer Life Sciences) was used instead of cryptate as fluorescence donor, and KF was replaced by NaCl at concentrations of 20, 100, and 500 mM. After 3 h of further incubation at 4 °C, the plates were measured in a PheraStar reader (BMG Labtech) using the homogeneous time-resolved fluorescence module (excitation, 337 nm with 10 flashes; emission, 620 and 665 nm). […]

BRD4 BD1 mutants [4] = assay: Thermal shift assay with JQ1, mutants as a group; assay type: binding, human; details: 100 μM JQ1
Description: In a typical TSA, 0.4 μg of BRD4 BD1 protein were mixed with 5× Sypro Orange (Molecular Probe) and adjusted to a final volume of 5 μl with 100 mM HEPES buffer, pH 7.5 (Applichem), and 150 mM NaCl (Sigma). […] To protect samples from evaporation, they were overlaid with 1 μl of silicone oil DC200 (Sigma). […] For data analysis, melting curves (fluorescence intensity changes at increasing temperatures) were fitted using a first derivative method ([51]) to determine the melting point Tm and the unfolding enthalpy ΔHu using the evaluation software provided by the manufacturer of the instrument. A series of thermal melting curves was collected in the presence of varying inhibitor concentrations.
as §1

BRD4 BD1 wild type [5] = tested on: BRD4 BD1 wild type
Description: (§3) For the cellular stabilization assays, the codon-optimized sequence of the wild-type and mutant versions of BRD4 BD1 (amino acids 44–166) flanked by an N-terminal His6 tag and a C-terminal FLAG tag and by 5′ and 3′ site-specific attachment sites for recombination using the Gateway technology (Invitrogen) were prepared by total DNA synthesis (GeneArt). The synthesized DNA fragments were cloned into the pTT5 ([49]) destination vector using a lambda site-specific recombination system (LR-recombination, Gateway Technology, Invitrogen). Plasmid DNA was prepared using the QIAprep Spin Miniprep kit (Qiagen).
(§4) HEK293–6E cells (Yves Durocher, National Research Council Canada) were grown in suspension with gentle shaking in FreeStyle F17 medium (Invitrogen) containing 4 mM L-alanyl-L-glutamine (BioChrom AG) and 0.1% Pluronic (Invitrogen). For transfection with DNA, 10 ml of cell suspension at a density of 10^6 cells/ml were prepared. […]
(§5) Plates were incubated at room temperature in the dark for 2 h. Time-resolved fluorescence was measured with a PHERAstar FS microplate reader (BMG Labtech) using the homogeneous time-resolved fluorescence module (excitation 337 nm, emission 1: 620 nm; emission 2: 665 nm). […]

BRD4 BD1 wild type [6] = details: pH 7.5
[7] = tested on: Patient-derived NMC tumors; details: xenograft, ref [17], [26]; cited from earlier work
BRD4 BD1 D144A [8] = molecular target: T2, BRD4 BD1 D144A (Homo sapiens, UniProt O60885, D144A)
BRD4 BD1 Y139F [9] = molecular target: T1, BRD4 BD1 Y139F; details: TSA
Description: (§6) In a typical TSA, 0.4 μg of BRD4 BD1 protein were mixed with 5× Sypro Orange (Molecular Probe) and adjusted to a final volume of 5 μl with 100 mM HEPES buffer, pH 7.5 (Applichem), and 150 mM NaCl (Sigma). […] To protect samples from evaporation, they were overlaid with 1 μl of silicone oil DC200 (Sigma). Melting curves were recorded using a ThermoFluor system (Johnson and Johnson Pharmaceutical Research and Development) after heating the samples from 25 up to 95 °C while measuring the fluorescence intensity of the dye with the excitation and emission filters set to 465 and 590 nm, respectively. For data analysis, melting curves (fluorescence intensity changes at increasing temperatures) were fitted using a first derivative method ([51]) to determine the melting point Tm and the unfolding enthalpy ΔHu using the evaluation software provided by the manufacturer of the instrument. […] The heat capacity of protein unfolding (ΔCpu) was assumed to be independent of the temperature and estimated from the size of the protein using the equation ([52]), ΔCpu = −119 + 0.20(−907 + 93(#residues)). […] ([53]).
as §1

BRD4 BD1 D145A [10] = molecular target: T3, BRD4 BD1 D145A (Homo sapiens, UniProt O60885, D145A)
BRD4 BD1 D145A [11] = molecular target: T3, BRD4 BD1 D145A; details: TR-FRET competition
Description: as §1, §2

BRD4 BD1 L94A [12] = molecular target: T4, BRD4 BD1 L94A (Homo sapiens, UniProt O60885, L94A); details: TR-FRET competition
Description: as §1, §2

BRD4 BD1 P82A [13] = molecular target: T5, BRD4 BD1 P82A (Homo sapiens, UniProt O60885, P82A)
BRD4 BD1 wild type [14] = details: WT, TR-FRET competition, 50 nM protein, 200 nM biotinylated H4 peptide; IC50 expressed as KD; mean ± S.D.
Description: as §1, §2

BRD4 BD1 I146A [15] = molecular target: T6, BRD4 BD1 I146A (Homo sapiens, UniProt O60885, I146A); details: TR-FRET competition
Description: as §1, §2

BRD4 BD1 P82A [16] = molecular target: T5, BRD4 BD1 P82A; details: TSA
Description: as §6, §1

BRD4 BD1 M149A [17] = molecular target: T7, BRD4 BD1 M149A (Homo sapiens, UniProt O60885, M149A); details: TSA
Description: as §6, §1

BRD4 BD1 N140A [18] = details: TSA, 100 μM JQ1, pH 7.5, mean ± S.D.
Description: as §6, §1

BRD4 BD1 Y139F [19] = molecular target: T1, BRD4 BD1 Y139F
BRD4 BD1 I146A [20] = molecular target: T6, BRD4 BD1 I146A
BRD4 BD1 N140A [21] = details: read-out: EC50 (protein stabilization)
Description: as §3, §4, §5

BRD4 BD1 Y97F [22] = details: read-out: EC50 (protein stabilization)
Description: as §3, §4, §5

BRD4 BD1 I146A [23] = molecular target: T6, BRD4 BD1 I146A; details: TSA
Description: as §6, §1

BRD4 BD1 P82A [24] = molecular target: T5, BRD4 BD1 P82A; details: TR-FRET competition
Description: as §1, §2

BRD4 BD1 W81A [25] = molecular target: T8, BRD4 BD1 W81A (Homo sapiens, UniProt O60885, W81A); details: TSA
Description: as §6, §1

BRD4 BD1 W81A [26] = molecular target: T8, BRD4 BD1 W81A
BRD4 BD1 D144A [27] = molecular target: T2, BRD4 BD1 D144A; details: TSA
Description: as §6, §1

BRD4 BD1 Y97F [28] = details: TSA, 100 μM JQ1, pH 7.5, mean ± S.D.
Description: as §6, §1

BRD4 BD1 mutants [29] = assay type: cell-based, human
Description: as §3, §4, §5

BRD4 BD1 D144A [30] = molecular target: T2, BRD4 BD1 D144A; details: TR-FRET competition
Description: as §1, §2

BRD4 BD1 M149A [31] = molecular target: T7, BRD4 BD1 M149A
BRD4 BD1 L94A [32] = molecular target: T4, BRD4 BD1 L94A; details: TSA
Description: as §6, §1

BRD4 BD1 wild type [33] = details: WT, TSA
Description: as §6, §1

BRD4 BD1 L94A [34] = molecular target: T4, BRD4 BD1 L94A
BRD4 BD1 D145A [35] = molecular target: T3, BRD4 BD1 D145A; details: TSA
Description: as §6, §1

[36] = 100 μM JQ1, pH 7.5, mean ± S.D.

Cc1sc2c(c1C)C(c1ccc(Cl)cc1)=N[C@@H](CC(=O)NCCCCCNC(=O)c1ccc(-c3c4ccc(=[N+](C)C)cc-4oc4cc(N(C)C)ccc34)c(C(=O)[O-])c1)c1nnc(C)n1-2 [JQ1-TAMRA, 5-{[5-({[(6S)-4-(4-chlorophenyl)-2,3,9-trimethyl-6H-thieno[3,2-f][1,2,4]triazolo [4,3-a][1,4]diazepin-6-yl]acetyl}amino)pentyl]carbamoyl}-2-[6-(dimethylamino)-3-(dimethyliminio)-3H-xanthen-9-yl]benzoate]
KD (in words) (BRD4): comparable with that of JQ1

Cc1sc2c(c1C)C(c1ccc(Cl)cc1)=N[C@@H](CC(=O)OC(C)(C)C)c1nnc(C)n1-2 [JQ1, tert-butyl[(6S)-4-(4-chlorophenyl)-2,3,9-trimethyl-6H-thieno[3,2-f][1,2,4]triazolo[4,3-a][1,4]diazepin-6-yl]acetate]
effect of mutation on JQ1 binding (in words) (BRD4 BD1 mutants [1]): strongest effects
half-fluorescence recovery (in words) (BRD4 wild type): enhanced half-fluorescence recovery
inhibition of BRD4-H4 interaction vs wild type (in words) (BRD4 BD1 mutants [2]; Leu-94 and Asp-145 mutated to alanine): better inhibitor
inhibition of BRD4-H4 interaction vs wild type (in words) (BRD4 BD1 mutants [2]; P82A): slightly decreased
ΔG (BRD4 BD1 Y139F [3]): -9.75 kcal/mol
stabilization by JQ1 (in words) (BRD4 BD1 mutants [4]; P82A, L94A, and I146A): moderate stabilization profile
stabilization by JQ1 (in words) (BRD4 BD1 mutants [4]; W81A, Y97F, N140A, and M149A): least stabilized by JQ1
stabilization by JQ1 (in words) (BRD4 BD1 mutants [4]; Y139F, D144A, and D145A): as strongly as wild-type BD1
protein levels (in words) (BRD4 BD1 wild type [5]): dose-dependent and saturable increase of the TR-FRET signals
EC50 (BRD4 BD1 wild type [5]; read-out: EC50 (protein stabilization)): 100 nM
Kd (BRD4 BD1 wild type [6]): 14.5 ± 3.3 nM
tumor inhibition (in words) [7]: inhibited
ΔG (BRD4 BD1 D144A [8]): -9.89 kcal/mol
ΔG° (BRD4 BD1 Y139F [9]): -12.3 kcal/mol
−TΔS° (BRD4 BD1 Y139F [9]): -7.84 kcal/mol
ΔTm (BRD4 BD1 Y139F [9]; [36]): 9.8 ± 0.3 °C
ΔH°b (BRD4 BD1 Y139F [9]; 100 μM JQ1 vs DMSO): -4.47 kcal/mol
JQ1 binding compared with wild type (in words) (BRD4 BD1 D145A [10]): not significantly different compared with wild-type BRD4 BD1
ΔG (BRD4 BD1 D145A [10]): -10.6 kcal/mol
increase of inhibitory activity vs wild type (BRD4 BD1 D145A [11]): 6 fold
ΔG (BRD4 BD1 D145A [11]): -10.5 kcal/mol
ΔG (BRD4 BD1 L94A [12]): -9.94 kcal/mol
ΔG (BRD4 BD1 P82A [13]): -9.06 kcal/mol
Kd (BRD4 BD1 wild type [14]): 106 ± 13.9 nM
ΔG (BRD4 BD1 I146A [15]): -9.39 kcal/mol
ΔG° (BRD4 BD1 P82A [16]): -11.5 kcal/mol
−TΔS° (BRD4 BD1 P82A [16]): -7.36 kcal/mol
ΔTm (BRD4 BD1 P82A [16]; [36]): 5.1 ± 0.2 °C
ΔH°b (BRD4 BD1 P82A [16]; 100 μM JQ1 vs DMSO): -4.16 kcal/mol
ΔG° (BRD4 BD1 M149A [17]): -10.9 kcal/mol
−TΔS° (BRD4 BD1 M149A [17]): -10.8 kcal/mol
ΔTm (BRD4 BD1 M149A [17]; [36]): 3.2 ± 0.3 °C
ΔH°b (BRD4 BD1 M149A [17]; 100 μM JQ1 vs DMSO): -0.12 kcal/mol
ΔTm (BRD4 BD1 N140A [18]): 3.3 ± 0.4 °C
JQ1 binding compared with wild type (in words) (BRD4 BD1 Y139F [19]): not significantly different compared with wild-type BRD4 BD1
ΔG (BRD4 BD1 Y139F [19]): -10.8 kcal/mol
ΔG (BRD4 BD1 I146A [20]): -8.7 kcal/mol
EC50 (BRD4 BD1 N140A [21]): 8400 nM
EC50 (BRD4 BD1 Y97F [22]): > 10000 nM
ΔG° (BRD4 BD1 I146A [23]): -11.8 kcal/mol
−TΔS° (BRD4 BD1 I146A [23]): -9.66 kcal/mol
ΔTm (BRD4 BD1 I146A [23]; [36]): 6.1 ± 0.3 °C
ΔH°b (BRD4 BD1 I146A [23]; 100 μM JQ1 vs DMSO): -2.1 kcal/mol
ΔG (BRD4 BD1 P82A [24]): -9.13 kcal/mol
ΔG° (BRD4 BD1 W81A [25]): -10.7 kcal/mol
−TΔS° (BRD4 BD1 W81A [25]): -8.53 kcal/mol
ΔTm (BRD4 BD1 W81A [25]; [36]): 2.8 ± 0.4 °C
ΔH°b (BRD4 BD1 W81A [25]; 100 μM JQ1 vs DMSO): -2.2 kcal/mol
ΔG (BRD4 BD1 W81A [26]): -8.29 kcal/mol
ΔG° (BRD4 BD1 D144A [27]): -12.3 kcal/mol
−TΔS° (BRD4 BD1 D144A [27]): -9.89 kcal/mol
ΔTm (BRD4 BD1 D144A [27]; [36]): 9.5 ± 0.6 °C
ΔH°b (BRD4 BD1 D144A [27]; 100 μM JQ1 vs DMSO): -2.37 kcal/mol
ΔTm (BRD4 BD1 Y97F [28]): 3.1 ± 0.6 °C
EC50 increase vs wild type (BRD4 BD1 mutants [29]): from 7-fold to >100-fold
ΔG (BRD4 BD1 D144A [30]): -9.94 kcal/mol
ΔG (BRD4 BD1 M149A [31]): -8.96 kcal/mol
ΔG° (BRD4 BD1 L94A [32]): -11.8 kcal/mol
−TΔS° (BRD4 BD1 L94A [32]): -7.6 kcal/mol
ΔTm (BRD4 BD1 L94A [32]; [36]): 6.9 ± 0.4 °C
ΔH°b (BRD4 BD1 L94A [32]; 100 μM JQ1 vs DMSO): -4.23 kcal/mol
ΔTm (BRD4 BD1 wild type [33]; 100 μM JQ1, 100 mM HEPES pH 7.5, 150 mM NaCl, mean ± S.D.): 9.6 ± 0.6 °C
Kd (BRD4 BD1 wild type [33]; extrapolated standard KD): 1 nM
ΔG (BRD4 BD1 L94A [34]): -9.66 kcal/mol
ΔG° (BRD4 BD1 D145A [35]): -12.2 kcal/mol
−TΔS° (BRD4 BD1 D145A [35]): -10.7 kcal/mol
ΔTm (BRD4 BD1 D145A [35]; [36]): 9.2 ± 0.6 °C
ΔH°b (BRD4 BD1 D145A [35]; 100 μM JQ1 vs DMSO): -1.55 kcal/mol
